# Measurements as given in a melting point compilation (Tetko et al.; mined from patent text by program, amines drawn as free bases though some values may be those of a salt).
row,SMILES,melting point
1,O=S(=O)(NCC1CCN(C[C@H]2COc3ccc(Br)cc3O2)CC1)c1cccc(Cl)c1Cl,93 to 95 °C
2,CC(C)(C)C(NCCSC12CC3CC(CC(C3)C1)C2)C(=O)O (centres undefined),220 to 230 °C
3,COc1ccc(/C=C/C(=O)Nc2cc3ccccc3cc2C(=O)O)cc1OC,212 to 213 °C
4,O=C(O)c1ccc(-c2csc(-c3ccc(C(F)(F)F)cc3)n2)cc1,275 to 276 °C
5,COC1OCC[C@@H]1N(C(=O)CNC(=O)COc1ccc2c(c1)Nc1ccccc1S2)[C@@H](Cc1ccccc1)C(N)=O (some centres undefined),203 to 204 °C
6,O=C1CCCOc2ccc(OCc3ccccc3)cc21,62 to 63 °C
7,O=c1[nH]c2ccc(Cl)cc2c(=O)c2ccccc12,289 to 293 °C
8,CC1(C)CC(S(=O)(=O)Cc2cnccc2C(F)(F)F)=NO1,77 to 80 °C
9,O=C(O)c1cn(CCO)c2c(F)c(N3CCn4ccnc4C3)c(F)cc2c1=O,253 to 255 °C
10,Clc1ccc(C#CCBr)cc1,41 to 43 °C
11,CCCNC(=O)C1(CCCCSc2nc3ccc(OCC)cc3s2)c2ccccc2-c2ccccc21,112 to 114 °C
12,CC(=O)OCCCc1cc(C=C2SC(=S)N(C)C2=O)cc(CCCOC(C)=O)c1O,151 to 155 °C
13,N#Cc1ccc2c(c1)[C@@H](OC1=CC(=O)CC1)[C@H](O)C(CF)(CF)O2 (relative stereo),200 to 201 °C
14,COc1ncnc(-c2cc([N+](=O)[O-])c(C#N)cc2F)c1Cl,161 to 162 °C
15,FC(F)(F)c1cccc(CSc2nnc(-c3ccc4ncc(-c5ccccn5)n4c3)o2)c1,181 to 182 °C
16,O=C1CCC(N2Cc3c(CNC(=O)Nc4ccc(Cl)cc4)cccc3C2=O)C(=O)N1 (centres undefined),> 260 °C
17,CC(C)C=CC(CC1CCCCC1)NC(=O)OC(C)(C)C (racemic),74 °C
18,O=C1NC(C(=O)NCCO[N+](=O)[O-])C(c2cccc3ccccc23)S1 (centres undefined),151 to 153 °C
19,CC(=O)OCCS(=O)(=O)C(F)(F)C(O)(Cn1cncn1)c1ccc(F)cc1F (centres undefined),77 to 80 °C
20,CS(=O)(=O)C(=[N+]=[N-])C(=O)CCc1ccccc1,52.5 to 54 °C
21,Cc1ccc(C(=O)Nc2c(NC(=O)CCl)ccc3c2C(=O)c2ccccc2C3=O)cc1,198 to 199 °C
22,NC(=O)c1ncn2c1[C@@H]1CCN1C(=O)c1ccccc1-2,228 to 230 °C
23,Nc1ccc2c(Cl)cc(Cl)nc2n1,213 to 216 °C

row,SMILES,melting point
1,O=C(O)C1(C(F)(F)F)NNC2=C1CCCC2 (centres undefined),183 to 184 °C
2,O=C(O)Cc1ccc(-c2ccccc2F)c(F)c1,126 to 127 °C
3,CCOc1nc(N2CCNCC2)nc2c1sc1nc(-c3ccc(C(O)CO)cc3)nc(C)c12 (centres undefined),> 300 °C
4,CC(C)c1cccc(COCCCO)c1NC(=O)CC1c2ccccc2Oc2ccccc21,150 to 151 °C
5,COc1ccc(OC)c(C(Nc2ccc(C(=N)N)cc2)C(=O)O)c1 (racemic),310 °C
6,COc1ccc(-c2cc(C(=O)Nc3ccc(CCN(C)Cc4ccc(OC)c(OC)c4)cc3)c3ccccc3n2)cc1,114 °C
7,CCO[C@@H]1[C@@H](OC)[C@H](C)O[C@@H](OC(=O)N(C(=O)CCC(=O)OC)c2ccc(-c3ncn(-c4ccc(OC(F)(F)C(F)(F)F)cc4)n3)cc2)[C@@H]1OC,72 to 76 °C
8,Clc1ccc(C2=NOCCS2)s1,74 to 77 °C
9,N#Cc1ccc(CNCCO)cc1,< 60 °C
10,Cn1cnnc1C(O)(c1ccc(I)cc1)c1ccc2c(c1)C(c1cccc(Cl)c1)Nc1nnnn1-2 (centres undefined),201 °C
11,CCCCCC[C@@H](CC(N)=O)N(CCC)C(=O)[C@H](CCCC(=O)O)NC(=O)c1cn(Cc2ccccc2)c2ccccc12,147 to 157 °C
12,CCC(=O)CC(=O)OCCC#N,98 to 100 °C
13,Cc1ncn(-c2ccccc2CNC(=O)c2nc3n(c(=O)c2OCc2ccccc2)CCOC3(C)C)n1,213 to 214 °C
14,COc1ccc(N2CCOCC2)c2sc(NC(=O)c3ccnc(CN(C)C(C)=O)c3)nc12,228 to 230 °C
15,CNc1ccc(CCc2ccc(OC)c(OC)c2)cc1,82 to 84 °C
16,"CC(N)C(=O)Nc1ccc([N+](=O)[O-])cc1C(=O)c1ccccc1Cl (single isomer, unassigned; (+))",132 °C
17,CCOC(=O)c1ccc(C2=CCCCC2C(C)(C)C)cc1 (centres undefined),50 °C
18,Cc1cc(CNC(=O)c2cc(-c3ccc(C(C)(C)C)cc3)[nH]n2)ccc1OC(C)(C)C(=O)O,100 °C
19,COC(=O)Nc1cc(Oc2ccc3c(C(=O)Nc4ccc(CN5CCN(C)CC5)c(C(F)(F)F)c4)nccc3c2)ncn1,203 to 205 °C
20,C=CC(=O)O[C@H]1CC[C@H](c2ccccc2)CC1,67.3 °C
21,CS(=O)(=O)Nc1ccc([N+](=O)[O-])cc1N,201 to 204 °C
22,NC(=S)Nc1ccccc1C1CC1,152 to 154 °C
23,Cn1c(N=C=O)c(-c2ccccc2)c2cc(Cl)ccc21,150 °C

row,SMILES,melting point
1,CC(=O)N[C@@H](C)COc1ccc2nc(-c3ccc(OCC4CC4)c(Cl)c3)oc2c1,156 to 159 °C
2,C=CCc1c(O)ccc2c1CCC(=O)N2,236 to 239 °C
3,CN(C)C=C1CCc2ccn(S(=O)(=O)c3ccccc3)c2C1=O,116 to 118 °C
4,COC(=O)c1ccc(C[C@H](NC(=O)OCc2ccccc2)C(=O)O)cc1,102 to 106 °C
5,COC(=O)C(C)(C)CCCOc1cc(C)c(OCc2ccccc2)c(C)c1C,67 to 68 °C
6,O=C(C=Cc1ccc(-c2nnn[nH]2)cc1)N1CCc2c([nH]c3ccccc23)C1c1ccc2c(c1)OCO2 (centres undefined),232 to 233 °C
7,COc1cc(OC)nc(N(C(=S)Oc2ccccc2)C(=S)Oc2ccccc2)n1,127 to 128 °C
8,Cc1nc2cc(Cl)cc(Cl)c2o1,110 to 113 °C
9,NS(=O)(=O)c1cc(Cc2ccccc2)c(O)c2ccccc12,167 to 168 °C
10,Cc1ccccc1CCCc1c(C)nc(N)nc1N,213 to 215 °C
11,CN(C(=O)OC(C)(C)C)c1ccc(-c2ncn(-c3ccc(OC(F)(F)F)cc3)n2)cc1,125 to 128 °C
12,COC(=O)c1cccc(CSc2c(O)cc(-c3ccccc3)oc2=O)c1,170 to 171 °C
13,CCOC(=O)c1nnc(N(C)C)n1C,52 to 53 °C
14,CCOC(=O)NC(=NCCC(c1ccccc1)c1ccc(F)cc1)NCCCc1c[nH]cn1 (centres undefined),131 °C
15,Brc1nc(Br)n(COCc2ccccc2)c1Sc1ccccc1,89 to 90 °C
16,O=C(NN1CCCCC1)c1nc(-c2ccc(Cl)cc2Cl)n(-c2ccc(Cl)cc2)c1Br,182 to 183 °C
17,Oc1ccc(-c2cc3cc(O)ccc3o2)c(Br)c1,195 °C
18,Cc1ccnc(-c2cc(C)cc(C#N)n2)c1,132 °C
19,Cc1cc2c(c3ccc(=O)[nH]c13)OC(CNC(=O)[C@@H]1CCCN1C(=O)OCc1ccccc1)C2 (some centres undefined),131 to 132 °C
20,CC1(C)SC2C(NC(c3ccccc3)(c3ccccc3)c3ccccc3)C(=O)N2C1c1nnn[nH]1 (centres undefined),133 to 136 °C
21,Cc1cc(C(=O)NC2CCCCC2)ccc1[N+](=O)[O-],134 to 141 °C
22,Oc1cccc(-c2nc3n(n2)Cc2ccccc2-3)c1,251 to 252 °C
23,Cc1cc(C(C)(C)C)c(OC(=O)c2ccccc2C(=O)Oc2c(C(C)(C)C)cc(C)cc2C(C)(C)C)c(C(C)(C)C)c1,262 to 265 °C
